Experimental data reported in patent US12552854B2, “Peptides that block presentation of antigenic islet peptides by HLA-DQ8 and methods for treating type-1 diabetes” (Icahn School of Medicine at Mount Sinai, priority 2019, dated 2026).
Entries after “also recorded” stand apart in the source; their conditions may differ.

Key:
[1] = molecular target: T1, recombinant HLA-DQ8 protein (Homo sapiens, UniProt P01909+P01920); experiment: DELFIA immunoassay: inhibition of biotinylated InsB:9-23 binding to recombinant HLA-DQ8; settings: for inhibition of InsB:9-23 binding to HLA-DQ8 (in words): D-peptides screened at 10 μM, recombinant HLA-DQ8
T1 construct: contained the extracellular portion of the DQA1*0301 α chain fused to the coiled-coil region of the basic leucine zipper domain of Fos; contained the extracellular portion of the DQB1*0302 β chain fused to the coiled-coil region of the basic leucine zipper domain of JunB; Fos leucine zipper (coiled-coil region) (C); TEV protease site (internal); His6; JunB leucine zipper (coiled-coil region) (C); FLAG; host or cells: baculovirus system
Description: HLA-DQ8 protein was produced using the baculovirus system. Two constructs were designed for both the α and the β chains of HLA-DQ8. The β chain construct contained the extracellular portion of the DQB1*0302 β chain fused to the coiled-coil region of the basic leucine zipper domain of JunB, and the α chain construct contained the extracellular portion of the DQA1*0301 α chain fused to the coiled-coil region of the basic leucine zipper domain of Fos. […] A tobacco etch virus protease cutting site was introduced in each chain to allow removal of the dimerization motif. The JunB and Fos dimerization motifs were added in order to allow the α and β chains to dimerize and form the final HLA-DQ8 protein (FIG. 12A). These constructs were used to produce the HLA-DQ8 protein in a baculovirus system using the Life Technologies Baculovirus protein production custom services (Carlsbad, CA).
D-peptides were produced by Fisher Scientific (Hanover Park, IL) in dry form and dissolved in PBS. All D-peptides were screened at a concentration of 10 μM for their ability to bind to the HLA-DQ8 pocket and block it from binding the InsB:9-23 peptide using a unique immunoassay (23). […] After washing 4 times, DELFIA Europium-labeled streptavidin (PerkinElmer) diluted in DELFIA assay buffer (PerkinElmer) was added for 30 minutes and shaken at slow speed at room temperature. Since the InsB:9-23 peptide was biotinylated the complex HLA-DQ8-InsB:9-23 peptide could be detected using the Europium-labeled streptavidin. After washing for 6 times, DELFIA Enhancement Solution was added for 1 hour or until the optimal signal was reached. Time-resolved fluorescence was measured using the BMG reader (BMG Labtech, Cary, NC). The experiment was performed in triplicate. As a negative control biotinylated InsB:9-23 peptide that was not pre-incubated with HLA-DQ8 was added to the nickel coated plates.
Immunoassay was performed as described above.

[2] = system: T-cells of InsB:9-23-immunized SJL-DQ8 mice; experiment: In vivo D-peptide treatment of InsB:9-23-immunized SJL-DQ8 humanized mice; design: species or system mouse; settings: 200 μg intraperitoneally on days 4, 7, 11 and 14; sacrifice day 17
[3] = molecular target: T2, HLA-DQ8 expressed on BSM cells (Homo sapiens, UniProt P01909+P01920, F237L); experiment: Flow cytometric analysis of InsB:9-23 peptide binding to BSM cells; assay type: cell-based; settings: flow cytometry
T2 construct: BSM cells that express HLA-DQ8 on their surface; host or cells: BSM cells (B-cell line homozygous for HLA-DQ8)
T2 sequence (P01920 33-261 A45G/Y58L/E77G/D89A/H199R/T217I, other chains not shown): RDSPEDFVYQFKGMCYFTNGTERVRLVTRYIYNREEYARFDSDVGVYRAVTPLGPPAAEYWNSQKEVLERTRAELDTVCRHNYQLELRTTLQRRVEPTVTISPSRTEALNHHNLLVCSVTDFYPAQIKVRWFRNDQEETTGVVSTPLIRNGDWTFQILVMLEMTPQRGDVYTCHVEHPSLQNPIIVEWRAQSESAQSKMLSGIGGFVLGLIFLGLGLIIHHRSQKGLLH

[4] = system: splenocytes isolated from SJL-DQ8 mice; experiment: Ex vivo CFSE T-cell proliferation, splenocytes of InsB:9-23-immunized SJL-DQ8 mice; assay type: cell-based, mouse; settings: all peptides at 50 μg/ml; 5 days
Description: ID NO: 23) and reverse primer [NT]

[5] = system: PBMCs isolated from DQ8 positive T1D patients; experiment: Cytokine production in PBMCs from DQ8 positive recent-onset T1D patients; assay type: cell-based, human; settings: stimulated with InsB:9-23 for 48 h; all peptides at 50 μg/ml
Description: (§1) Subjects with a diagnosis of T1D within the previous 2 years were recruited from the Pediatric Endocrine clinic at Children Hospital at Montefiore and from the adult Endocrine clinics at Montefiore and Mount Sinai Hospitals (New York). Peripheral blood mononuclear cells (PBMCs) were isolated from heparinized blood using Ficoll-Paque (GE Healthcare); freshly isolated PBMCs were used for T-cell activation studies and for genotyping. DNA purified from the blood of the patients was typed for HLA-DQ as previously described (32). PBMCs isolated from DQ8 positive patients were seeded in 96 well plates with 200 μl medium (RPMI, 10% FBS). […] The stimulated PBMCs were assessed for cytokine production and T-cell proliferation as described above for mouse splenocytes. DQ8 typed patients with long standing T1D (>10 years) were used as negative controls in the experiments (no T-cell responses to islet peptides).

[6] = system: PBMCs isolated from DQ8 positive T1D patients; experiment: CFSE T-cell proliferation in PBMCs from DQ8 positive recent-onset T1D patients; assay type: cell-based, human; settings: all peptides at 50 μg/ml
Description: as §1

[7] = Metabolic stability in mouse hepatocytes; assay type: in vitro ADME; settings: mouse, hepatocytes; 1 μM; read-out: half-life after incubation with mouse hepatocytes (converted)
Description: Cryopreserved mouse hepatocytes were thawed at 37° C. in water bath until the ice was almost melted (˜90 seconds). The suspensions from the each were immediately transferred to 50 mL centrifuge tubes containing pre-warmed thawing media (VitroGRO HT Medium, Thawing) at 37° C. The cell suspensions were centrifuged at 50 g for 5 minutes at 4° C. (SYS679). Supernatants were discarded and the pellets were re-suspended in pre-warmed 3 mL incubation media (from in vitroGRO HT Medium, Incubation) at 37° C. The percentages of viable cells in the suspension were determined by using the Trypan Blue stain method (20 μL of tryptan blue and 20 μL of cell suspension) DF=2. Cryo mouse hepatocyte (Bioreclamation, lot #CHV) viability was 72.62% (viable/dead=305/115), and the total cells were 4.57 million. 1.57 mL of incubation media was added to cell concentration to get 1 million cells/mL. 10 μl of 100 μM test compounds stock in ACN:H2O (v:v, 1:1) was added to 990 μl of hepatocyte suspension/incubation media in a 24-well plate. 10 μl of 20 μM Midazolam was added to 990 μl of hepatocyte suspension as a positive control in a 24-well plate. The cells were incubated in a 37° C. incubator (SYS431) for 4 hours. 50 μl of aliquots (n=2) were added to 800 ul of MeOH:water (v:v, 5:95) at 0, 15, 30, 60, 120, 180 and 240 minutes. For all samples, 20 μL of internal standard (200 ng/mL tolbutamide) was added to the solution in water. The samples were vortexed vigorously for 5 minutes and then loaded onto a pre-conditioned Oasis HLB 96-well SPE plate (10 mg, […]). The Oasis HLB 96-well SPE plate was conditioned with 1 mL of methanol and then rinsed with 1 mL of water before the samples were loaded. Once loaded onto the Oasis HLB 96-well SPE plate, residual solution was removed by vacuum. The samples were eluted into a clean 96-well plate with 800 μL of 0.1% formic acid in 70% acetonitrile. The samples were evaporated to dryness under nitrogen at ambient temperature using a TurboVap 96 Concentration Workstation (Caliper Life Sciences). […]

[8] = Half-life and Intrinsic Clearance of RI-CT and RI-EXT (1 µM) after Incubation with Mouse Hepatocytes
Description: Table printed on a drawing sheet, FIG. 20
Title: Half-life and Intrinsic Clearance of RI-CT and RI-EXT (1 µM) after Incubation with Mouse Hepatocytes
First reader's note: The footnotes are printed inside the table frame as its last two rows; midazolam is a small-molecule positive control.

[9] = system: 5KC cells (TCR specific for the InsB:9-23-DQ8 complex) with BSM cells; experiment: Mixed lymphocyte reaction (BSM cells loaded with InsB:9-23 and 5KC cells), IL-2 by Luminex; assay type: cell-based, human, murine; settings: peptide loaded on BSM cells
Description: BSM cells homozygous for HLA-DQ8 (European Collection of Authenticated Cell Cultures) were cultured in RPMI growth medium (ATCC, Manassas, VA) supplied with 10% fetal bovine serum (FBS) (Sigma), 1% penicillin-streptomycin (Corning, NY), and 2 mM glutamine (Corning). Cells were grown at 37° C., 5% CO2, and passaged 1-2 times a week. 5KC cells (generously provided by Dr. Maki Nakayama, University of Colorado, Denver) were produced and cultured as described (25, 26).
To functionally test in vitro D-peptides ability to block T-cell activation, 10^6 BSM cells were incubated over night with 200 μg/ml InsB:9-23 (or with scrambled InsB:9-23 or gliadin as negative peptides); on the following day InsB:9-23 loaded BSM cells were washed twice with phosphate buffered saline (PBS) to remove excess peptide and RI-CT or RI-EXT peptides (or scrambled RI-CT/RI-EXT, as negative controls) were added to the cells. Following 2 hours of incubation at 37° C. 5KC cells were added to the mixture BSM-InsB:9-23-D-peptides (1:1 proportion) and incubated overnight. 5KC cells are transfected with human T-cell receptor that is activated only upon engagement with HLA-DQ8-InsB:9-23 complex. […] After overnight incubation of the 5KC cells with BSM cells loaded with InsB:9-23 and with different D-peptides IL-2 production was measured in the supernatants by Luminex assay. […]

binding to the recombinant HLA-DQ8 protein ([1]; biotinylated peptide, compared to scrambled InsB:9-23, FIG. 3B) | binding of InsB:9-23 to HLA-DQ8 positive BSM cells ([3]; incubated without D-peptides) | Compound | inhibition of InsB:9-23 binding to HLA-DQ8 (in words) [1] | inhibition of InsB:9-23 binding to HLA-DQ8 (in words) ([1]; listed as #10) | dose dependence of the inhibition of InsB:9-23 binding to HLADQ8 ([1]; serially diluted to 0.5 μM, FIG. 3D) | activation of T-cells by InsB:9-23 in immunized mice (IL-2, IFN-γ of splenocytes) [2] | inhibition of the binding of InsB:9-23 to DQ8 expressed on BSM cells (in words) ([3]; 10 μM peptide) | T-cell proliferation induced by InsB:9-23 (CFSE assay), SJL-DQ8 splenocytes [4] | IFN-γ production, PBMCs of DQ8 positive T1D patients [5] | IL-2 production, PBMCs of DQ8 positive T1D patients [5] | T-cell proliferation induced by InsB:9-23 (CFSE assay), PBMCs of DQ8 positive T1D patients [6] | half-life [7] | CLint (mL/min/million cells) [8] | t1/2 [8] | induction of IL-2 secretion in 5KC cells / activation of 5KC cells [9]
– | – | CC(C)C[C@@H](NC(=O)[C@@H](Cc1ccc(O)cc1)NC(=O)[C@@H](CC(C)C)NC(=O)[C@H](NC(=O)[C@@H](CS)NC(=O)CNC(=O)[C@@H](CCC(=O)O)NC(=O)[C@@H](CCCNC(=N)N)NC(=O)CNC(=O)CNC(=O)[C@@H](Cc1ccccc1)NC(=O)[C@H](N)Cc1ccccc1)C(C)C)C(=O)N[C@H](C)C(=O)N[C@H](CCC(=O)O)C(=O)N[C@@H](C(=O)N[C@H](CC(C)C)C(=O)N[C@H](Cc1c[nH]cn1)C(=O)N[C@H](CO)C(=O)NCC(=O)O)C(C)C [RI-EXT] | significant inhibition | best extended sequence | dose-dependent | significantly blocked | inhibits the binding | significantly suppressed; also recorded: significantly decreased | significantly suppressed; also recorded: significantly decreased | significantly suppressed; also recorded: significantly decreased | significantly suppressed; also recorded: significantly decreased | ~1 h | 0.012 mL/min/million cells | 0.963 h | –
significant binding | 84.8% | SHLVEALYLVCGERG [InsB:9-23, diabetogenic insulin peptide, reference compound] | – | – | – | – | – | – | – | – | – | – | – | – | dose-dependent manner
